Laboratory results: patent publication US4894392A, “Aminoalkyl naphthalenediols as host resistance enhancers” (priority 1988, dated 1990)
Structures can show the parent of a compound that is named as a salt.

Tested on: Pseudomonas aeruginosa
Experiment: In vivo immunopotentiation against challenge with lethal doses of Pseudomonas aeruginosa (cyclophosphamide-immunocompromised mouse model)
Set-up: species or system random outbred albino CF1 female mice
Settings: CY 250 mg/kg i.p. 4 days before P. aeruginosa challenge; test compound injected once, 2 hours after CY
Experimental: An immunocompromised mouse model, established by intraperitoneal treatment of random outbred albino CF1 female mice (ca. 25 g) with 250 mg/kg body weight of cyclophosphamide (CY) 4 days prior to bacterial challenge with Pseudomonas aeruginosa, was used as the assay system. In this model, test compounds were injected only once (2 hours) after CY treatment. After bacterial challenge, LD50 's (50% lethal doses) were determined. Increased LD50 's in treated mice over controls indicated a return to normality. The LD50 for untreated or vehicle-treated mice was routinely 10^6 -10^7 colony forming units (CFU) of P. aeruginosa organisms. After CY treatment, the LD50 was reduced to 10^1 to 10^2 CFU's. The protection afforded by test compound (Protective Index) was determined by calculating the number of LD50 's of protection of treated animals over the LD50 of CY controls.

`CC(C)(C)C1CCC(NCc2ccc3c(CNC4CCC(C(C)(C)C)CC4)c(O)ccc3c2O)CC1` (mixture of isomers) [Example 3, 1,6-Dihydroxy-2,5-bis-(4-tert-butylcyclohexylaminomethyl)-naphthalene dihydrochloride (mixture of isomers)] was tested. Which “Relative No. LD50's (Protective Index: number of LD50's of protection of treated animals over the LD50 of CY controls)” value did it give?
The value was 2128.

How did the “Relative No. LD50's (Protective Index: number of LD50's of protection of treated animals over the LD50 of CY controls)” value turn out when `CC1CCCCC1NCc1ccc2c(CNC3CCCCC3C)c(O)ccc2c1O` (mixture of isomers) [Example 5, 1,6-Dihydroxy-2,5-bis-(2-methylcyclohexylaminomethyl)-naphthalene dihydrochloride (mixture of isomers)] was run?
Its value is 133.

`CC1CCCC(NCc2ccc3c(CNC4CCCC(C)C4)c(O)ccc3c2O)C1` (mixture of isomers) [Example 6, 1,6-Dihydroxy-2,5-bis-(3-methylcyclohexylaminomethyl)-naphthalene dihydrochloride (mixture of isomers)] was tested. Which “Relative No. LD50's (Protective Index: number of LD50's of protection of treated animals over the LD50 of CY controls)” value did it give?
Its value is 151.

How did the “Relative No. LD50's (Protective Index: number of LD50's of protection of treated animals over the LD50 of CY controls)” value turn out when `CC(C)(C)C1CCC(NCc2ccc3c(CNC4CCC(C(C)(C)C)CC4)c(O)ccc3c2O)CC1.Cl.Cl` (single isomer, unassigned) [Example 4, 1,6-Dihydroxy-2,5-bis-(4-tert-butylcyclohexylaminomethyl)-naphthalene dihydrochloride (single isomer)] was run?
Its value is 1000.

With `Cl.Cl.Oc1ccc2c(O)c(CNCC3CCCCC3)ccc2c1CNCC1CCCCC1` [Example 2, 1,6-Dihydroxy-2,5-bis-(cyclohexylmethylaminomethyl)-naphthalene dihydrochloride] as the molecule, how does the “Relative No. LD50's (Protective Index: number of LD50's of protection of treated animals over the LD50 of CY controls)” value read?
The value was 320.

With `C[C@H]1CC[C@H](NCc2ccc3c(CN[C@H]4CC[C@H](C)CC4)c(O)ccc3c2O)CC1.Cl.Cl` [Example 7, 1,6-Dihydroxy-2,5-bis-(trans-4-methylcyclohexylaminomethyl)-naphthalene dihydrochloride] as the molecule, how does the “Relative No. LD50's (Protective Index: number of LD50's of protection of treated animals over the LD50 of CY controls)” value read?
Its value is 1000.

Same assay, conditions: cyclophosphamide-immune compromised mouse, P. aeruginosa lethal challenge

`CC(C)(C)C1CCC(NCc2ccc3c(CNC4CCC(C(C)(C)C)CC4)c(O)ccc3c2O)CC1.Cl.Cl` (single isomer, unassigned) [Example 4, 1,6-Dihydroxy-2,5-bis-(4-tert-butylcyclohexylaminomethyl)-naphthalene dihydrochloride (single isomer)] was tested. Which “LD50 raised over untreated controls” value did it give?
Its value is 1000 fold.
